Data reported in the supplement of paper PMC11061612.

How the values were obtained:
Assay in all cases: Bliss excess, mean over the matrix (fraction); higher = more synergy
EB2 (Burkitt's Lymphoma) = system: EB2 (Burkitt's Lymphoma)
Summary of the method: (§1)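 Cell lines grown in DMEM/F12 or RPMI with 10% FBS were plated in 1536-well plates and held 24 hours at 37°C, 5% CO2 before 72 hours of exposure to two-drug dose matrices, with DMSO typically at 0.2%. CellTiter-Glo 2.0 luminescence gave viability, which was converted to inhibition. Vehicle wells were set to 0 and blank wells to 1. Combination Emax is the second-highest inhibition in the matrix, and Bliss excess is the observed combination effect minus the expected EA + EB − EA·EB, where EA and EB are the single-agent effects.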

[1] = system: HCC1395 (Breast Carcinoma)
Summary of the method: as §1

PEO1 (Ovarian Carcinoma) = system: PEO1 (Ovarian Carcinoma)
Summary of the method: as §1

[2] = system: KYSE-220 (Esophageal Squamous Cell Carcinoma)
Summary of the method: as §1

[3] = system: MDA-MB-436 (Breast Carcinoma)
Summary of the method: as §1

[4] = system: NCI-H2087 (Lung Adenocarcinoma)
Summary of the method: as §1

WM1552C (Melanoma) = system: WM1552C (Melanoma)
Summary of the method: as §1

[5] = system: NCI-H1651 (Lung Adenocarcinoma)
Summary of the method: as §1

[6] = system: LU-165 (Small Cell Lung Carcinoma)
Summary of the method: as §1

HCC70 (Breast Carcinoma) = system: HCC70 (Breast Carcinoma)
Summary of the method: as §1

[7] = system: CGTH-W-1 (Thyroid Gland Carcinoma)
Summary of the method: as §1

[8] = system: UACC-812 (Breast Carcinoma)
Summary of the method: as §1

[9] = system: A2780 (Ovarian Carcinoma)
Summary of the method: as §1

[10] = system: SK-HEP-1 (Hepatocellular Carcinoma)
Summary of the method: as §1

[11] = system: SW620 (Colorectal Carcinoma)
Summary of the method: as §1

EW-7 (Ewing's Sarcoma) = system: EW-7 (Ewing's Sarcoma)
Summary of the method: as §1

IM-9 (Non-Cancerous) = system: IM-9 (Non-Cancerous)
Summary of the method: as §1

[12] = system: JHH-2 (Hepatocellular Carcinoma)
Summary of the method: as §1

[13] = system: NCI-H441 (Lung Adenocarcinoma)
Summary of the method: as §1

[14] = system: JHU-022 (Oral Cavity Carcinoma)
Summary of the method: as §1

SMILES | Bliss excess (EB2 (Burkitt's Lymphoma)) | Bliss excess [1] | Bliss excess (PEO1 (Ovarian Carcinoma)) | Bliss excess [2] | Bliss excess [3] | Bliss excess [4] | Bliss excess (WM1552C (Melanoma)) | Bliss excess [5] | Bliss excess [6] | Bliss excess (HCC70 (Breast Carcinoma)) | Bliss excess [7] | Bliss excess [8] | Bliss excess [9] | Bliss excess [10] | Bliss excess [11] | Bliss excess (EW-7 (Ewing's Sarcoma)) | Bliss excess (IM-9 (Non-Cancerous)) | Bliss excess [12] | Bliss excess [13] | Bliss excess [14]
CN(CCO)CC[C@H](CSc1ccccc1)Nc1ccc(S(=O)(=O)NC(=O)c2ccc(N3CCC([C@@H](O)c4ccccc4-c4ccc(Cl)cc4)CC3)cc2)cc1S(=O)(=O)C(F)(F)F [AZD4320] + Cn1cnc2c(F)c(Nc3ccc(Br)cc3Cl)c(C(=O)NOCCO)cc21 [Selumetinib] (first compound max 1 µM, 7x7, partner max 3 µM) | -0.0592 | 0.012 | -0.0044 | 0.043 | -0.0388 | 0.0142 | 0.0035 | 0.0238 | -0.0155 | 0.152 | 0.0043 | 0.0065 | 0.0111 | 0.0008 | 0.032 | 0.0295 | 0.051 | -0.0267 | 0.0193 | 0.0374
CN(CCO)CC[C@H](CSc1ccccc1)Nc1ccc(S(=O)(=O)NC(=O)c2ccc(N3CCC([C@@H](O)c4ccccc4-c4ccc(Cl)cc4)CC3)cc2)cc1S(=O)(=O)C(F)(F)F [AZD4320] + Nc1ccn([C@@H]2O[C@H](CO)[C@@H](O)C2(F)F)c(=O)n1 [Gemcitabine] (first compound max 1 µM, 7x7, partner max 0.3 µM) | -0.0017 | -0.0457 | -0.0368 | 0.0369 | 0.0024 | 0.0051 | 0.0167 | 0.0198 | 0.0836 | 0.103 | 0.0579 | -0.0326 | -0.0321 | -0.108 | -0.009 | 0.0189 | 0.043 | -0.0302 | 0.0333 | 0.0202
Cc1cc2ncnn2cc1Nc1ncc2c(n1)n(C1CCOCC1)c(=O)n2C [AZD7648] + C=CCn1c(=O)c2cnc(Nc3ccc(N4CCN(C)CC4)cc3)nc2n1-c1cccc(C(C)(C)O)n1 [AZD1775] (first compound max 10 µM, partner max 1 µM) | -0.0857 | -0.0571 | 0.0164 | -0.0222 | -0.0189 | -0.0176 | -0.0111 | -0.0812 | 0.0491 | 0.0731 | 0.0025 | -0.0446 | 0.0088 | 0.0387 | -0.0206 | 0.0024 | -0.0659 | -0.0469 | 0.0059 | -0.0239
Cc1cc2ncnn2cc1Nc1ncc2c(n1)n(C1CCOCC1)c(=O)n2C [AZD7648] + CCN(CCO)CCCOc1ccc2c(Nc3cc(CC(=O)Nc4cccc(F)c4)[nH]n3)ncnc2c1 [AZD2811] (first compound max 10 µM, 7x7, partner max 1 µM) | 0.0607 | -0.0181 | -0.0141 | 0.0544 | -0.0452 | -0.0209 | 0.0025 | 0.0404 | -0.0339 | -0.0203 | 0.0363 | 0.0276 | 0.0122 | 0.0517 | 0.0357 | 0.043 | -0.0432 | -0.0763 | -0.0502 | 0.028
Cc1cc2ncnn2cc1Nc1ncc2c(n1)n(C1CCOCC1)c(=O)n2C [AZD7648] + CN(C)CCCOc1ccc(-c2ccc3ncc4c(c3c2)n(C2CCOCC2)c(=O)n4C)cn1 [AZD0156] (first compound max 10 µM, 7x7, partner max 1 µM) | -0.0217 | -0.0273 | -0.0136 | 0.0204 | -0.0147 | -0.0115 | 0.0249 | 0.0089 | 0.0071 | -0.0122 | 0.0015 | 0.033 | -0.0148 | -0.0146 | 0.0148 | -0.03 | -0.0509 | -0.0441 | -0.0016 | -0.057
Cc1cc2ncnn2cc1Nc1ncc2c(n1)n(C1CCOCC1)c(=O)n2C [AZD7648] + COc1cc([C@@H]2c3cc4c(cc3[C@@H](O[C@@H]3O[C@@H]5CO[C@@H](C)O[C@H]5[C@H](O)[C@H]3O)[C@H]3COC(=O)[C@H]23)OCO4)cc(OC)c1O [Etoposide] (first compound max 10 µM, 7x7, partner max 10 µM) | 0.0495 | -0.013 | 0.0461 | 0.066 | 0.0189 | 0.0674 | 0.0922 | 0.073 | -0.0132 | 0.0677 | 0.0595 | -0.0106 | 0.085 | 0.0472 | 0.0975 | 0.0263 | 0.12 | -0.0132 | 0.0013 | 0.0522
Cc1cc2ncnn2cc1Nc1ncc2c(n1)n(C1CCOCC1)c(=O)n2C [AZD7648] + C[C@@H]1COCCN1C2=NC(=NC(=C2)C3(CC3)[S@](=N)(=O)C)C4=C5C=CNC5=NC=C4 [AZD6738] (first compound max 10 µM, 7x7, partner max 10 µM) | -0.0604 | 0.0361 | -0.0121 | -0.0122 | 0.0316 | 0.0177 | 0.0143 | 0.0217 | 0.0351 | -0.0058 | 0.0191 | 0.0254 | 0.0061 | 0.0239 | 0.0264 | -0.0058 | -0.0417 | -0.073 | 0.0095 | 0.0105
Cc1cc2ncnn2cc1Nc1ncc2c(n1)n(C1CCOCC1)c(=O)n2C [AZD7648] + O=C(c1cc(Cc2n[nH]c(=O)c3ccccc23)ccc1F)N1CCN(C(=O)C2CC2)CC1 [Olaparib] (first compound max 10 µM, 7x7, partner max 10 µM) | 0.0055 | -0.0871 | -0.0374 | -0.0372 | -0.0522 | -0.0207 | -0.0418 | -0.0356 | -0.102 | -0.0292 | -0.0412 | -0.0119 | -0.0213 | -0.0428 | -0.0305 | -0.0027 | -0.0144 | -0.0099 | -0.0555 | -0.0682
COc1cc2ncnc(Nc3ccc(F)c(Cl)c3)c2cc1OCCCN1CCOCC1 [Gefitinib] + CC(C)n1c(=O)n(C)c2cnc3cc(F)c(-c4ccc(OCCCN5CCCCC5)nc4)cc3c21 [AZD1390] (first compound max 10 µM, 7x7, partner max 0.3 µM) | -0.0774 | -0.0265 | -0.0346 | -0.0059 | -0.0402 | -0.135 | -0.0589 | -0.0554 | -0.0477 | -0.0536 | -0.0417 | -0.0549 | -0.0704 | 0.0092 | -0.0762 | -0.0416 | -0.0511 | -0.0446 | -0.047 | -0.053
COc1cc2c(cc1OCCCCCOc1cc3c(cc1OC)C(=O)N1C=C(C)C[C@H]1C=N3)N=C[C@@H]1CC(C)=CN1C2=O [SG3199] + O=C(c1cc(Cc2n[nH]c(=O)c3ccccc23)ccc1F)N1CCN(C(=O)C2CC2)CC1 [Olaparib] (first compound max 0.001 µM, 7x7, partner max 10 µM) | -0.0259 | -0.0449 | -0.0397 | -0.0151 | -0.0412 | -0.0224 | -0.0462 | -0.0788 | -0.0532 | -0.0252 | -0.0332 | -0.0377 | -0.0404 | -0.0582 | -0.0303 | -0.0341 | -0.0059 | -0.0244 | -0.0871 | -0.0479
N#Cc1cnc(Nc2cc(NC[C@H]3CNCCO3)c(C(F)(F)F)cn2)cn1 [SRA737] + C=CCn1c(=O)c2cnc(Nc3ccc(N4CCN(C)CC4)cc3)nc2n1-c1cccc(C(C)(C)O)n1 [AZD1775] (first compound max 10 µM, partner max 1 µM) | 0.0335 | 0.0559 | -0.0117 | 0.0983 | -0.0132 | 0.0238 | -0.0052 | 0.0846 | 0.0319 | 0.0276 | -0.0074 | 0.0343 | 0.097 | -0.0452 | -0.0272 | 0.0142 | 0.156 | -0.008 | -0.0403 | -0.0533
N#Cc1cnc(Nc2cc(NC[C@H]3CNCCO3)c(C(F)(F)F)cn2)cn1 [SRA737] + CCc1c2c(nc3ccc(O)cc13)-c1cc3c(c(=O)n1C2)COC(=O)[C@]3(O)CC [SN-38] (first compound max 10 µM, 7x7, partner max 0.3 µM) | -0.0723 | -0.0012 | -0.0697 | 0.0163 | -0.031 | 0.0137 | -0.0777 | -0.0101 | -0.0704 | -0.0249 | -0.0377 | -0.0309 | -0.0496 | -0.0793 | 0.0405 | -0.0597 | 0.0219 | 0.0131 | -0.0258 | -0.0966
N#Cc1cnc(Nc2cc(NC[C@H]3CNCCO3)c(C(F)(F)F)cn2)cn1 [SRA737] + O=c1[nH]cc(F)c(=O)[nH]1 [5-Fluorouracil] (first compound max 10 µM, 7x7, partner max 20 µM) | -0.0038 | -0.0584 | 0.0228 | -0.0134 | 0.0202 | -0.0122 | 0.0347 | -0.0323 | -0.082 | 0.0824 | 0.0467 | 0.023 | -0.0066 | -0.122 | -0.0353 | -0.0504 | 0.0007 | 0.0695 | -0.0258 | -0.0078
